Assay results as given in ChEMBL document CHEMBL6092124, “Design, synthesis and biological evaluation of novel cyano-cinnamate derivatives as mitochondrial pyruvate carrier inhibitors” (Bioorg Med Chem Lett, 2024).
Calls of active or inactive are those of the source. No cut-off for these calls is given here.

Tests used:
MCF-10A [1] = assay: Inhibition of MPC in human MCF-10A cells assessed as lactate concentration at 10 uM measured for 36 hrs; format: cell-based
MCF-10A [2] = assay: Inhibition of MPC in human MCF-10A cells assessed as cellular lactate production measured per 10^6 cells at 10 uM measured for 36 hrs; format: cell-based
MCF-10A [3] = assay: Inhibition of MPC in human MCF-10A cells assessed as cellular lactate production measured per 10^6 cells measured for 36 hrs; format: cell-based; details: dose 10.0 µM
Mus musculus [4] = organism: Mus musculus; assay: Induction of hair growth in C57BL/6J mouse assessed as appearance of hair growth patches measured on day 17; format: functional, organism-based; details: time 17.0 day
Mus musculus [5] = organism: Mus musculus; assay: Induction of hair growth in C57BL/6J mouse assessed as increase in pigmentation measured after 10 days; format: functional, organism-based; details: time 10.0 day

SMILES	Activity (MCF-10A [1])	Activity (MCF-10A [2])	Activity (MCF-10A [3])	Activity (Mus musculus [4])	Activity (Mus musculus [5])
N#C/C(=C\c1cn(Cc2cccnc2)c2ccccc12)C(=O)O	0.393 µmol/mL	0.093 µmol			
CCOC(=O)/C(C#N)=C/c1cn(-c2ccccn2)c2ccccc12	0.625 µmol/mL	0.148 µmol			
CCOC(=O)/C(C#N)=C/c1cn(Cc2cccnc2)c2ccccc12	0.874 µmol/mL	0.208 µmol			
N#C/C(=C\c1cn(-c2ccccc2)c2ccccc12)C(=O)O	0.778 µmol/mL	0.185 µmol	Dose-dependent-effect	Active	
CCOC(=O)/C(C#N)=C/c1cn(-c2ncccn2)c2ccccc12	0.342 µmol/mL	0.081 µmol			
N#C/C(=C\c1cn(-c2cncnc2)c2ccccc12)C(=O)O	0.546 µmol/mL	0.13 µmol			
N#C/C(=C\c1cn(Cc2ccncc2)c2ccccc12)C(=O)O	-0.337 µmol/mL	-0.08 µmol			
N#C/C(=C\c1cn(Cc2ccccn2)c2ccccc12)C(=O)O	1.35 µmol/mL	0.322 µmol		Active	Active; Drug Entered To Anagen Phase
CCOC(=O)/C(C#N)=C/c1cn(-c2cncnc2)c2ccccc12	0.025 µmol/mL	0.006 µmol			
N#C/C(=C\c1cn(-c2ncccn2)c2ccccc12)C(=O)O	0.421 µmol/mL	0.1 µmol			
N#C/C(=C\c1cn(-c2ccc3ccccc3c2)c2ccccc12)C(=O)O	0.517 µmol/mL	0.123 µmol			
N#C/C(=C\c1cn(Cc2ccc3ccccc3c2)c2ccccc12)C(=O)O	1.23 µmol/mL	0.292 µmol			
N#C/C(=C\c1cn(-c2ccncc2)c2ccccc12)C(=O)O	0.059 µmol/mL	0.014 µmol			
CCOC(=O)/C(C#N)=C/c1cn(-c2cn(C)cn2)c2ccccc12	0.64 µmol/mL	0.152 µmol			
CCOC(=O)/C(C#N)=C/c1cn(-c2ccncc2)c2ccccc12	0.025 µmol/mL	0.006 µmol			
N#C/C(=C\c1cn(-c2ccccn2)c2ccccc12)C(=O)O	0.489 µmol/mL	0.116 µmol			
Cn1cnc(-n2cc(/C=C(\C#N)C(=O)O)c3ccccc32)c1	-0.003 µmol/mL	-0.001 µmol			
CCOC(=O)/C(C#N)=C/c1cn(-c2ccc3ccccc3c2)c2ccccc12	0.438 µmol/mL	0.104 µmol			
CCOC(=O)/C(C#N)=C/c1cn(Cc2ccc3ccccc3c2)c2ccccc12	0.268 µmol/mL	0.064 µmol			
CCOC(=O)/C(C#N)=C/c1cn(-c2cccnc2)c2ccccc12	0.138 µmol/mL	0.033 µmol			
N#C/C(=C\c1cn(-c2cccnc2)c2ccccc12)C(=O)O	0.251 µmol/mL	0.06 µmol			
CCOC(=O)/C(C#N)=C/c1cn(Cc2ccccn2)c2ccccc12	-0.128 µmol/mL	-0.03 µmol			
CCOC(=O)/C(C#N)=C/c1cn(Cc2ccncc2)c2ccccc12	-0.02 µmol/mL	-0.005 µmol			
